System: Botrytis cinerea
Assay: Treatment of sweet peppers (Example 10)
Format: in vivo
Conditions: 20° C., 150 ppm spiroxamine or both
Procedure: Ten fresh, organic sweet peppers were used per treatment. Each sweet pepper was soaked in a 180 ppm hypochlorite solution for 10 minutes, then rinsed thoroughly with fresh tap water and dried. The peel of each disinfected sweet pepper was wounded once using a cork borer according to the method described by de Lapeyre de Bellaire and Dubois (1987). Subsequently, each wound was inoculated with 10 μl of a Botrytis cinerea suspension containing 1×10^5 of spores/ml. After incubation for 3 hours at 20° C., each wound and the skin area of 0.5 cm around the wound was treated with in total 75 μl of a freshly prepared aqueous antifungal composition comprising either 200 ppm natamycin (DSM Food Specialties, Delft, The Netherlands), 150 ppm spiroxamine or both. […]
The treated sweet peppers were incubated in a closed box in the dark at 20° C. and assessed on mould growth during incubation. The antifungal activity (in %) of the individual and combined active ingredients was determined by calculating the reduction in mould growth observed on the sweet peppers treated with the antifungal composition in comparison to the mould growth on the sweet peppers treated with the control composition according to the Colby method (Colby, 1967) as described in Example 5.

## CCCN(CC)CC1COC2(CCC(C(C)(C)C)CC2)O1 (centres unmarked) [Spiroxamine, spiroxamine]
Day 12, 200 ppm natamycin
  Observed antifungal activity O (%): 0%
Day 13, 200 ppm natamycin
  Observed antifungal activity O (%): 0%
